The source of these data is PubChem BioAssay (NCI).

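Briefly, cells in 96-well plates were exposed to five compound concentrations for 48 h, and endpoints were estimated by linear interpolation. GI50 is the concentration that inhibits growth by half. The concentration for full growth arrest is given as TGI.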

Holding throughout (assay): DTP human tumour cell line panel, 48 h
The test system of experiment [1] is COLO 205 colon.
Experiment [2] deals with HL-60(TB) leukemia.
Experiment [3] deals with IGROV1 ovarian.
Experiment [4] has as its system MOLT-4 leukemia.
Experiment [5] has as its system NCI-H226 lung.
Experiment [6] deals with PC-3 prostate.
For experiment [7], the system named is SNB-19 CNS.
Experiment [8] relates to BT-549 breast.

`CCOC(=O)OC1(c2ccccc2)CCN(C)CC1`: the total growth inhibition concentration (TGI) in experiment [1], in experiment [2], in experiment [3], in experiment [4], in experiment [5] and in experiment [6] was > 100 µM each time. Further, in experiment [7], the total growth inhibition concentration (TGI) is > 100 µM.
For `CCOP(=O)(COCCn1nc(Br)c(=O)[nH]c1=O)OCC`, the TGI in experiment [1], in experiment [2], in experiment [3], in experiment [4], in experiment [5] and in experiment [6] was > 100 µM throughout. Also, in experiment [7], the total growth inhibition concentration (TGI) was > 100 µM.
As to `COC(=O)c1ccc2cc(O)ccc2c1`, the TGI in experiment [8], in experiment [1], in experiment [3], in experiment [4], in experiment [5] and in experiment [6] was > 100 µM each time. In addition, the TGI in experiment [7] is > 100 µM.
Take `O=C1c2cc3c(cc2-c2c1c1cc(F)c(F)cc1c(=O)n2C[C@H](O)CO)OCO3`: the GI50 in experiment [8] is 0.0727 µM; in experiment [1] it was 0.103 µM; in experiment [2], 0.0426 µM; in experiment [3], 0.182 µM; in experiment [4], 0.0317 µM; in experiment [6] it was 0.127 µM. The TGI was 2.22 µM in experiment [8]; 1.2 µM in experiment [1]; > 100 µM in experiment [2]; > 100 µM in experiment [3]; > 100 µM in experiment [4]; > 100 µM in experiment [6].
With `CC(C)NC(=O)OCc1c(COC(=O)NC(C)C)n(C)c2c1ccc1cc(Cl)c(Cl)cc12`, the TGI turned out to be 30.7 µM in experiment [8]; 22.8 µM in experiment [1]; 22.2 µM in experiment [3]; 27.9 µM in experiment [4]; 17.3 µM in experiment [5]; 29 µM in experiment [6]. The same compound returned a concentration for total growth inhibition (TGI) in experiment [7] of 26.6 µM.
With `CCc1ccc(OCc2ccccc2C(=O)Nc2ccc3nc(C)cc(N)c3c2)cc1`, in experiment [1], the GI50 was 0.24 µM and the TGI is 0.692 µM. Besides, in experiment [6], the GI50 was 1.52 µM and the total growth inhibition concentration (TGI) worked out at 2.93 µM.
Turning to `Cn1c(=O)c2[nH]c(Nc3cccc(Cl)c3)nc2n(C)c1=O`, the TGI in experiment [1], in experiment [2], in experiment [3], in experiment [4] and in experiment [6] was > 10 µM throughout.
Take `CC1=[N+]([O-])C2(CCCC2)N(O)C1(C)C`: the concentration for total growth inhibition (TGI) in experiment [1], in experiment [2], in experiment [3], in experiment [5], in experiment [6] and in experiment [7] was > 100 µM throughout.
Regarding `O=C(O[C@@H](/C=C/c1ccccc1)P1(=O)N(Cc2ccccc2)[C@@H]2CCCC[C@H]2N1Cc1ccccc1)c1ccccc1`, the concentration for total growth inhibition (TGI) in experiment [8] is > 100 µM; in experiment [1], 4.55 µM; in experiment [2], > 100 µM; in experiment [3] it was 15.5 µM; in experiment [5] it was 9.58 µM; in experiment [6], > 100 µM. Also, the concentration for total growth inhibition (TGI) in experiment [7] is > 100 µM.
Take `C=C1C[C@@H]2CC[C@@]34CC5O[C@H]6C(O[C@H]7CC[C@H](CC(=O)O[C@@H]8[C@@H](C)[C@@H]9O[C@@H]%10C[C@]%11(C[C@@H]%12O[C@]%13(C[C@H](C)[C@@H]%14O[C@@H]%15CC(C(COC(C)=O)OC(C)=O)O[C@@H]%15C[C@@H]%14O%13)C[C@H](C)[C@@H]%12O%11)O[C@@H]%10C[C@@H]9O[C@H]8CC8O[C@@H](CC[C@@H]1O2)C[C@@H](C)C8(O)CO)O[C@@H]7[C@@H]6O3)[C@H]5O4` (stereo partly specified): the TGI was 0.751 µM in experiment [8]; > 1 µM in experiment [1]; > 1 µM in experiment [3]; > 1 µM in experiment [4]; > 1 µM in experiment [5]; > 1 µM in experiment [6]. The total growth inhibition concentration (TGI) in experiment [7] is > 1 µM.
For the compound `Clc1sc(Cl)c2c1[C@H](Br)C[C@@H]2Cl`, the TGI was 40.3 µM in experiment [8]; 44.3 µM in experiment [1]; 44.6 µM in experiment [3]; 53.1 µM in experiment [4]; > 100 µM in experiment [6]; > 100 µM in experiment [7].
Turning to `CCOC(=O)c1c(-c2ccc(OC)cc2)c(C#N)c(=S)n(C2OC(CO)C(O)C(O)C2O)c1C` (stereo unspecified), the TGI in experiment [1], in experiment [2], in experiment [3], in experiment [4], in experiment [5] and in experiment [6] was > 100 µM in each case. Also, the total growth inhibition concentration (TGI) in experiment [7] is > 100 µM.
Take `COc1ccc(CCn2ccc(=O)c(O)c2C)cc1OC`: the concentration for total growth inhibition (TGI) in experiment [8] was > 100 µM; in experiment [1] it was > 100 µM; in experiment [2], 81.9 µM; in experiment [4], > 100 µM; in experiment [6], > 100 µM; in experiment [7], > 100 µM.
In the case of `CN1C2CCC1C(CO)C(=O)C2` (stereo unspecified), the total growth inhibition concentration (TGI) in experiment [8] is > 100 µM; in experiment [1], 32.8 µM; in experiment [2], 26.2 µM; in experiment [3], > 100 µM; in experiment [4], 59.5 µM; in experiment [5], > 100 µM. Further, in experiment [6], the TGI was > 100 µM.
`CCC1(c2ccc(OC)c(OC)c2)CCN2C(=O)C(O)CC21` (stereo unspecified): the TGI in experiment [8], in experiment [1], in experiment [3], in experiment [4], in experiment [5] and in experiment [6] was > 100 µM in each case. Besides, the TGI in experiment [7] is > 100 µM.
As to `CC(=O)OC1COC(N2c3ccccc3[C@@H]3CCc4c([nH]c5ccccc45)[C@@H]32)C(OC(C)=O)C1OC(C)=O` (mixture of isomers), the TGI is > 100 µM in experiment [8]; > 100 µM in experiment [1]; 54 µM in experiment [3]; > 100 µM in experiment [4]; > 100 µM in experiment [6]; > 100 µM in experiment [7].
Turning to `O/N=C/[C@H]1COC2(CCCCC2)O1`, the total growth inhibition concentration (TGI) in experiment [1], in experiment [3], in experiment [4], in experiment [5], in experiment [6] and in experiment [7] was > 100 µM in each case.
For `Oc1ccc(C[C@@H]2CN[C@H](Cc3ccc(O)c(Br)c3)CN2)cc1`, the TGI in experiment [8], in experiment [1], in experiment [2], in experiment [3], in experiment [4] and in experiment [5] was > 100 µM each time. Also, the total growth inhibition concentration (TGI) in experiment [6] was > 100 µM.
